Measurements taken from PubChem BioAssay AID2060907 (Molecular Pharmacology Branch, DTP, NCI, 2025).

Tested on: 388556-164-R-J1-PDC complex spheroid viability
Test: Anticancer human tumor 388556-164-R-J1-PDC patient-derived colon adenocarcinoma cell line growth inhibition [RAS]
Settings: for IC50: curve of first compound; for viability, T/C: stronger effect = lower value
Text: RAS pathway inhibitors in Combinations in Complex Spheroids
A high-throughput screen of multi-cell type tumor spheroids was designed to identify active combinations of RAS pathway inhibitors and targeted small molecules. Complex spheroids include a stromal component modeled by human endothelial cells (HUVEC) and fibroblasts modeled by human mesenchymal stem cells (MSCs). The concentration ranges selected for each drug and investigational agent were based upon clinically achievable concentrations if the clinical Cmax of the agent was known.
Compounds. The drugs and investigational agents: abemaciclib (NSC768073), cobimetinib (NSC768068), divarasib (GDC6063, NSC841802), docetaxel (NSC628503), GDC-1971 (RLY-1971, NSC841576), gemcitabine (NSC613327), inavolisib (NSC800729), ipatasertib (NSC767898), KB-0742 (NSC834161), MRTX-1133 (NSC836407), osimertinib (NSC779217), RMC-4630 (NSC839698), RMC-6236 (NSC851965), RMC-6291 (NSC852671), Ro-3306 (NSC812927), sapanisertib (NSC764658), SN-38 (NSC673596), staurosporine (NSC755774), SY5609 (NSC837396), and tovorafenib (DAY101, NSC766906), were obtained from the National Cancer Institute (NCI) Developmental Therapeutics Program Chemical Repository. The FDA-approved anticancer drug set is available from the NCI Developmental Therapeutics Program. […] The stock solutions were prepared in dimethyl sulfoxide (DMSO, Sigma-Aldrich, St. Louis, MO, cat. D2650) at 800-fold the tested concentration and stored at -70 degrees C prior to their use. All drugs and investigational agents were tested over a range starting from a high concentration at or near the clinical Cmax and decreasing in half-log increments. If the clinical Cmax for an agent had not been determined, the highest concentration tested was 10 microM.
Cell Culture. All cells were maintained in an incubator at 37 degrees C and 5% CO2 with 95% humidity. The PDC lines were cultured according to standard operating procedures established by the NCI PDMR. All PDCs were thawed and cultured in Matrigel-coated flasks prepared with a working solution of 1X Ham's F-12 nutrient mix, without supplementation (Invitrogen, Waltham, MA, cat. 11765054), 100 U/mL penicillin-streptomycin (Invitrogen, cat. 15140122), and 2.5% Matrigel (Corning Inc., Corning, NY, cat. 354248) for the first three passages. The 362531-283-R-J2-PDC and 782815-120-R-J1-PDC lines were cultured in 6C/Colon 1B media, which includes advanced DMEM/F-12 (Thermo Fisher Scientific, cat. 12634028), 10 mM HEPES (Thermo Fisher Scientific, cat. 15630080), 1X GlutaMAX supplement (Thermo Fisher Scientific, cat. 35050061), 0.1 mg/mL primocin (InvivoGen, San Diego, CA, cat. ant-pm-2), 10% defined fetal bovine serum, heat inactivated (HyClone Laboratories Inc., Logan, UT, cat. SH30070.03HI), 50% L-WRN conditioned media (ATCC, cat. CRL-3276), 1.25 mM N-Acetyl-L-cysteine (Sigma-Aldrich, cat. A9165), 10 mM nicotinamide (Sigma-Aldrich, cat. N0636), 1X B-27 supplement (Thermo Fisher Scientific, cat. 17504044), 1X N-2 supplement (Thermo Fisher Scientific, cat. 17502048), 50 ng/mL human EGF (Thermo Fisher Scientific, cat. PHG0311), and 10 microM Y-27632 dihydrochloride (Tocris Bioscience, cat. 1254). The K12877-001-R-J1-PDC line was cultured in 6I media, which includes all 6C/Colon 1B media plus 10 ng/mL human FGF-10 (PeproTech, cat. 100-26), 1 ng/mL human FGF-2 (PeproTech, cat. 100-18B), 1 µM prostaglandin E2 (Tocris Bioscience, cat. 2296), […] hydrocortisone (Sigma-Aldrich, cat. H4001), and […] bovine insulin (Sigma-Aldrich, cat. I6634). The K86415-001-R-J1-PDC line was cultured in 6D media, which includes all 6C/Colon 1B media components minus the L-WRN conditioned media. The 485176-168-R4-J1-PDC was cultured in PANC media, which includes all 6C/Colon 1B media plus 100 ng/mL human FGF-10 (PeproTech, cat. 100-26), 500 nM SB-431542 (Selleckchem, cat. S1067), and 10 nM gastrin (Tocris Bioscience, cat. 3006). […]

[1] = second compound 0.0316 µM, first compound 0.0316 µM
[2] = second compound 0.0316 µM, first compound 0.1 µM
[3] = second compound 0.0316 µM, first compound 0.316 µM
[4] = second compound 0.0316 µM, first compound 1 µM
[5] = second compound 0.1 µM, first compound 0.0316 µM
[6] = second compound 0.1 µM, first compound 0.1 µM
[7] = second compound 0.1 µM, first compound 0.316 µM
[8] = second compound 0.1 µM, first compound 1 µM
[9] = second compound 0.316 µM, first compound 0.0316 µM
[10] = second compound 0.316 µM, first compound 0.1 µM
[11] = second compound 0.316 µM, first compound 0.316 µM
[12] = second compound 0.316 µM, first compound 1 µM
[13] = second compound 1 µM, first compound 0.0316 µM
[14] = second compound 1 µM, first compound 0.1 µM
[15] = second compound 1 µM, first compound 0.316 µM
[16] = second compound 1 µM, first compound 1 µM
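Further: spheroids exposed to compound for 7 days before readout.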
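Wherever viability, T/C is given: 100% = DMSO vehicle control luminescence.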

In the case of CC(Nc1ccc2c(c1)OCCn1cc(N3C(=O)OCC3C(F)F)nc1-2)C(N)=O (centres undefined) + C#Cc1c(F)ccc2cc(O)cc(-c3ncc4c(N5CC6CCC(C5)N6)nc(OCC56CCCN5CC(F)C6)nc4c3F)c12, the IC50 (second compound 0.0316 µM) is reported as > 10000 nM, the IC50 (second compound 0.1 µM) is reported as > 10000 nM and the IC50 (second compound 0.316 µM) is reported as > 10000 nM. It also gave an IC50 (second compound 1 µM) of 8110 nM, an IC50 (second compound 3.16 µM) of 2960 nM and an IC50 (second compound 10 µM) of 1040 nM. The viability, T/C [1] was 94.9%, the viability, T/C [2] was 95.5% and the viability, T/C [3] was 94%. It also gave a viability, T/C [4] of 78.8%, a viability, T/C (second compound 0.0316 µM, first compound 3.16 µM) of 76.6% and a viability, T/C (second compound 0.0316 µM, first compound 10 µM) of 66.6%. It also gave a viability, T/C [5] of 93.6%, a viability, T/C [6] of 90.7% and a viability, T/C [7] of 83.3%. It also gave a viability, T/C [8] of 81%, a viability, T/C (second compound 0.1 µM, first compound 3.16 µM) of 77% and a viability, T/C (second compound 0.1 µM, first compound 10 µM) of 62.3%. It also gave a viability, T/C [9] of 94.8%, a viability, T/C [10] of 84.3% and a viability, T/C [11] of 74.2%. For the same compound, the viability, T/C [12] was 69.9%, the viability, T/C (second compound 0.316 µM, first compound 3.16 µM) was 72% and the viability, T/C (second compound 0.316 µM, first compound 10 µM) was 51.9%. The viability, T/C [13] was 82.1%, the viability, T/C [14] was 89.9% and the viability, T/C [15] was 58.1%. The viability, T/C [16] was 69.4%, the viability, T/C (second compound 1 µM, first compound 3.16 µM) was 69.2% and the viability, T/C (second compound 1 µM, first compound 10 µM) was 43.6%. It also gave a viability, T/C (second compound 3.16 µM, first compound 0.0316 µM) of 82.4%, a viability, T/C (second compound 3.16 µM, first compound 0.1 µM) of 63.2% and a viability, T/C (second compound 3.16 µM, first compound 0.316 µM) of 64.2%. For the same compound, the viability, T/C (second compound 3.16 µM, first compound 1 µM) was 59.5%, the viability, T/C (second compound 3.16 µM, first compound 3.16 µM) was 53.3% and the viability, T/C (second compound 3.16 µM, first compound 10 µM) was 38.4%. For the same compound, the viability, T/C (second compound 10 µM, first compound 0.0316 µM) was 59.4%, the viability, T/C (second compound 10 µM, first compound 0.1 µM) was 57.2% and the viability, T/C (second compound 10 µM, first compound 0.316 µM) was 55.1%. It also gave a viability, T/C (second compound 10 µM, first compound 1 µM) of 50.8%, a viability, T/C (second compound 10 µM, first compound 3.16 µM) of 29.5% and a viability, T/C (second compound 10 µM, first compound 10 µM) of 31.1%.
In the case of C=CC(=O)Nc1cc(Nc2nccc(-c3cn(C)c4ccccc34)n2)c(OC)cc1N(C)CCN(C)C + C=CC(=O)N1CCN(c2nc(OCC3CCCN3C)nc3c(F)c(-c4nc(N)cc(C)c4C(F)(F)F)c(Cl)cc23)C(C)C1, the IC50 (second compound 0.00316 µM) is reported as > 1000 nM, the IC50 (second compound 0.01 µM) is reported as > 1000 nM and the IC50 (second compound 0.0316 µM) is reported as > 1000 nM. For the same compound, the IC50 (second compound 0.1 µM) was > 1000 nM, the IC50 (second compound 0.316 µM) was > 1000 nM and the IC50 (second compound 1 µM) was > 1000 nM. The viability, T/C (second compound 0.00316 µM, first compound 0.00316 µM) was 110%, the viability, T/C (second compound 0.00316 µM, first compound 0.01 µM) was 99.2% and the viability, T/C (second compound 0.00316 µM, first compound 0.0316 µM) was 92.6%. It also gave a viability, T/C (second compound 0.00316 µM, first compound 0.1 µM) of 80.3%, a viability, T/C (second compound 0.00316 µM, first compound 0.316 µM) of 68.6% and a viability, T/C (second compound 0.00316 µM, first compound 1 µM) of 52.8%. For the same compound, the viability, T/C (second compound 0.01 µM, first compound 0.00316 µM) was 104%, the viability, T/C (second compound 0.01 µM, first compound 0.01 µM) was 103% and the viability, T/C (second compound 0.01 µM, first compound 0.0316 µM) was 101%. It also gave a viability, T/C (second compound 0.01 µM, first compound 0.1 µM) of 90.1%, a viability, T/C (second compound 0.01 µM, first compound 0.316 µM) of 68.4% and a viability, T/C (second compound 0.01 µM, first compound 1 µM) of 58%. For the same compound, the viability, T/C (second compound 0.0316 µM, first compound 0.00316 µM) was 102%, the viability, T/C (second compound 0.0316 µM, first compound 0.01 µM) was 99% and the viability, T/C [1] was 94%. The viability, T/C [2] was 87.3%, the viability, T/C [3] was 70.3% and the viability, T/C [4] was 61.2%. It also gave a viability, T/C (second compound 0.1 µM, first compound 0.00316 µM) of 100%, a viability, T/C (second compound 0.1 µM, first compound 0.01 µM) of 99.4% and a viability, T/C [5] of 91.1%. It also gave a viability, T/C [6] of 90.6%, a viability, T/C [7] of 72.9% and a viability, T/C [8] of 54.6%. It also gave a viability, T/C (second compound 0.316 µM, first compound 0.00316 µM) of 99.2%, a viability, T/C (second compound 0.316 µM, first compound 0.01 µM) of 110% and a viability, T/C [9] of 103%. The viability, T/C [10] was 94.5%, the viability, T/C [11] was 76.1% and the viability, T/C [12] was 58.8%. The viability, T/C (second compound 1 µM, first compound 0.00316 µM) was 90.6%, the viability, T/C (second compound 1 µM, first compound 0.01 µM) was 100% and the viability, T/C [13] was 93.5%. It also gave a viability, T/C [14] of 96.4%, a viability, T/C [15] of 73.3% and a viability, T/C [16] of 54.9%.
